Assay results published in patent US8957017B2, “Dipeptoid prodrugs and their use” (Bayer Intellectual Property GmbH, priority 2007, dated 2015).
Where a name gives a salt, the structure may show the parent alone.

Legend:
[1] = Determination of the solubility in 5% strength aqueous dextrose solution; assay type: physicochemical; conditions: saline or isotonic, thermodynamic from solid; for solubility thermodynamic at 24 h: room temperature
Description: a) Determination of the Solubility:
The test substance is suspended in 5% strength aqueous dextrose solution. This suspension is shaken at room temperature for 24 h. After ultracentrifugation at 224 000 g for 30 min, the supernatant is diluted with DMSO and analysed by HPLC. A two-point calibration plot of the test compound in DMSO is used for quantification.
Agilent 1100 with DAD (G1315A), quat. Pump (G1311A), autosampler CTC HTS PAL, degasser (G1322A) and column thermostat (G1316A); column: Phenomenex Gemini C18, 5 μm, 50 mm×2 mm; temperature: 40° C.; eluent A: water/phosphoric acid pH 2, eluent B: acetonitrile; flow rate: 0.7 ml/min; gradient: 0-0.5 min 85% A, 15% B; ramp 0.5-3 min 10% A, 90% B; 3-3.5 min 10% A, 90% B; ramp 3.5-4 min 85% A, 15% B; 4-5 min 85% A, 15% B.
Agilent 1100 with DAD (G1315A), quat. pump (G1311A), autosampler CTC HTS PAL, degasser (G1322A) and column thermostat (G1316A); column: VDSoptilab Kromasil 100 C18, 3.5 μm, 60 mm×2.1 mm; temperature: 30° C.; eluent A: water+5 ml of perchloric acid/liter, eluent B: acetonitrile; flow rate: 0.75 ml/min; gradient: 0-0.5 min 98% A, 2% B; ramp 0.5-4.5 min 10% A, 90% B; 4.5-6 min 10% A, 90% B; ramp 6.5-6.7 min 98% A, 2% B; 6.7-7.5 min 98% A, 2% B.

[2] = Stability in buffer at various pH values; assay type: physicochemical
Description: b) Stability in Buffer at Various pH Values:
0.3 mg of the test substance is weighed into a 2 ml HPLC vial and 0.5 ml of acetonitrile or acetonitrile/DMSO (9:1) is added. The substance is dissolved by putting the sample vessel in an ultrasonic bath for about 10 seconds. Then 0.5 ml of the respective buffer solution is added, and the sample is again treated in the ultrasonic bath.
pH 2: 0.03 mol of citric acid, 0.061 mol of sodium chloride and 0.0082 mol of hydrochoric acid ad 1 liter of water;
pH 4: 1 liter of Millipore water is adjusted to pH 4.0 with 1 N hydrochloric acid;
pH 5: 0.096 mol of citric acid and 0.2 mol of sodium hydroxide ad 1 liter of water;
pH 6: 0.06 mol of citric acid and 0.16 mol of sodium hydroxide ad 1 liter of water;
pH 7.4: 90.0 g of sodium chloride, 13.61 g of potassium dihydrogen phosphate and 83.35 g of 1 N sodium hydroxide solution are made up to 1 liter with water; this solution is then further diluted 1:10 with Millipore water.
pH 8: 0.013 mol of borax and 0.021 mol of hydrochloric acid ad 1 liter of water.
5 μl portions of the test solution are analyzed by HPLC for their content of unchanged test substance, and of parent substance (A) produced, every hour over a period of 24 hours at 37° C. The percentage areas of the appropriate peaks are used for quantification.
The ratios of the peak areas (F) at the respective time points in relation to the peak areas at the starting time are shown in Table 2 for representative exemplary embodiments: […]

[3] = system: heart rate of anesthetized rats; test: Influence on the heart rate of anesthetized rats; assay type: in vivo; conditions: maximum decrease in the first 30 min after i.v. bolus of 100 μg/kg of (A) or equivalent dosages; anesthetized male Wistar rats
Description: f) Determination of the Influence on the Heart Rate of Anesthetized Rats:
Male Wistar rats with a body weight above 250 g are employed. In the night before the experiment, the animals receive no feed but still have free access to drinking water. Preparation and investigations are carried out under Trapanal® anesthesia (100 mg/kg i.p.). Injection and infusion take place through a catheter in the jugular vein, and the blood pressure is recorded via a catheter in the femoral artery (transducer: Braun, Melsungen). After the preparation, the animals are connected to a continuous infusion of physiological saline solution to compensate fluid losses. Test substance or placebo solution are administered as bolus after an equilibration time of about 1 h. Heart rate and arterial blood pressure are recorded during the equilibration and over a period of at least 30 min after the bolus injection with the aid of a digital evaluation program.
Table 4 lists the maximum heart rate decrease in the first 30 min after an i.v. bolus of 100 μg/kg of the active substance (A) or of equivalent dosages of representative exemplary embodiments: […]

solubility thermodynamic at 24 h [1]	% test substance after 4 h [F(t = 4 h) × 100/F(t = 0 h)] ([2]; pH 4, 37° C.)	% test substance after 24 h [F(t = 24 h) × 100/F(t = 0 h)] ([2]; pH 4, 37° C.)	% test substance after 4 h [F(t = 4 h) × 100/F(t = 0 h)] ([2]; pH 7.4, 37° C.)	% test substance after 24 h [F(t = 24 h) × 100/F(t = 0 h)] ([2]; pH 7.4, 37° C.)	% test substance after 24 h [F(t = 24 h) × 100/F(t = 0 h)] ([2]; pH 4, 37° C., disodium salt)	% test substance after 24 h [F(t = 24 h) × 100/F(t = 0 h)] ([2]; pH 7.4, 37° C., disodium salt)	solubility at 24 h [1]	Structure (SMILES)	Heart rate decrease [3]
450 µg/mL	100%	100%	99%	55%				CC(C)[C@H](NC(=O)[C@@H](N)CCCNC(=N)N)C(=O)OCCOc1ccc(-c2c(C#N)c(N)nc(SCc3csc(-c4ccc(Cl)cc4)n3)c2C#N)cc1 [Example 3, 2-{4-[2-Amino-6-({[2-(4-chlorophenyl)-1,3-thiazol-4-yl]methyl}thio)-3,5-dicyanopyridin-4-yl]-phenoxy}ethyl L-arginyl-L-valinate dihydrochloride]	
> 500 µg/mL	99%	98%	49%	2%				C[C@@H](NC(=O)[C@@H](N)CCCCN)C(=O)OCCOc1ccc(-c2c(C#N)c(N)nc(SCc3csc(-c4ccc(Cl)cc4)n3)c2C#N)cc1 [Example 12, 2-{4-[2-Amino-6-({[2-(4-chlorophenyl)-1,3-thiazol-4-yl]methyl}sulfanyl)-3,5-dicyanopyridin-4-yl]-phenoxy}ethyl L-lysyl-D-alaninate dihydrochloride]	
> 500 µg/mL	100%	100%	90%	55%				CC(C)C[C@H](NC(=O)[C@@H](N)CCCCN)C(=O)OCCOc1ccc(-c2c(C#N)c(N)nc(SCc3csc(-c4ccc(Cl)cc4)n3)c2C#N)cc1 [Example 11, 2-{4-[2-Amino-6-({[2-(4-chlorophenyl)-1,3-thiazol-4-yl]methyl}sulfanyl)-3,5-dicyanopyridin-4-yl]-phenoxy}ethyl L-lysyl-L-leucinate dihydrochloride]	
	100%	100%	100%	100%				CC(C)[C@H](NC(=O)CCN)C(=O)OCCOc1ccc(-c2c(C#N)c(N)nc(SCc3csc(-c4ccc(Cl)cc4)n3)c2C#N)cc1 [Example 2, 2-{4-[2-Amino-6-({[2-(4-chlorophenyl)-1,3-thiazol-4-yl]methyl}thio)-3,5-dicyanopyridin-4-yl]-phenoxy}ethyl β-alanyl-L-valinate hydrochloride]	

Second part, the compound before the results:

Structure (SMILES)	solubility thermodynamic at 24 h [1]	% test substance after 4 h [F(t = 4 h) × 100/F(t = 0 h)] ([2]; pH 4, 37° C.)	% test substance after 24 h [F(t = 24 h) × 100/F(t = 0 h)] ([2]; pH 4, 37° C.)	% test substance after 4 h [F(t = 4 h) × 100/F(t = 0 h)] ([2]; pH 7.4, 37° C.)	% test substance after 24 h [F(t = 24 h) × 100/F(t = 0 h)] ([2]; pH 7.4, 37° C.)	% test substance after 24 h [F(t = 24 h) × 100/F(t = 0 h)] ([2]; pH 4, 37° C., disodium salt)	% test substance after 24 h [F(t = 24 h) × 100/F(t = 0 h)] ([2]; pH 7.4, 37° C., disodium salt)	solubility at 24 h [1]	Heart rate decrease [3]
N#Cc1c(N)nc(SCc2csc(-c3ccc(Cl)cc3)n2)c(C#N)c1-c1ccc(OCCOC(=O)[C@H](Cc2ccccc2)NC(=O)[C@@H](N)CCCCN)cc1 [Example 18, 2-{4-[2-Amino-6-({[2-(4-chlorophenyl)-1,3-thiazol-4-yl]methyl}sulfanyl)-3,5-dicyanopyridin-4-yl]-phenoxy}ethyl L-lysyl-L-phenylalaninate dihydrochloride]	450 µg/mL								
C[C@H](NC(=O)[C@@H](N)CCCNC(=N)N)C(=O)OCCOc1ccc(-c2c(C#N)c(N)nc(SCc3csc(-c4ccc(Cl)cc4)n3)c2C#N)cc1 [Example 14, 2-{4-[2-Amino-6-({[2-(4-chlorophenyl)-1,3-thiazol-4-yl]methyl}sulfanyl)-3,5-dicyanopyridin-4-yl]-phenoxy}ethyl L-arginyl-L-alaninate dihydrochloride]	> 500 µg/mL	100%	100%	68%	8%				
N#Cc1c(N)nc(SCc2csc(-c3ccc(Cl)cc3)n2)c(C#N)c1-c1ccc(OCCOC(=O)CC[C@H](NC(=O)CCC(=O)O)C(=O)O)cc1 [Example 9, (2S)-5-(2-{4-[2-Amino-6-({[2-(4-chlorophenyl)-1,3-thiazol-4-yl]methyl}thio)-3,5-dicyanopyridin-4-yl]phenoxy}ethoxy)-2-[(3-carboxypropanoyl)amino]-5-oxopentanoic acid]		100%	100%	100%	100%				
C[C@H](NC(=O)[C@@H](N)Cc1cnc[nH]1)C(=O)OCCOc1ccc(-c2c(C#N)c(N)nc(SCc3csc(-c4ccc(Cl)cc4)n3)c2C#N)cc1 [Example 15, 2-{4-[2-Amino-6-({[2-(4-chlorophenyl)-1,3-thiazol-4-yl]methyl}sulfanyl)-3,5-dicyanopyridin-4-yl]-phenoxy}ethyl L-histidyl-L-alaninate dihydrochloride]	450 µg/mL								
N#Cc1c(N)nc(SCc2csc(-c3ccc(Cl)cc3)n2)c(C#N)c1-c1ccc(OCCOC(=O)CC[C@@H](N)C(=O)NCCN)cc1 [Example 13, 2-{4-[2-Amino-6-({[2-(4-chlorophenyl)-1,3-thiazol-4-yl]methyl}sulfanyl)-3,5-dicyanopyridin-4-yl]-phenoxy}ethyl N-(2-aminoethyl)-D-α-glutaminate dihydrochloride]	> 500 µg/mL	100%	99%	24%	0%				
N#Cc1c(N)nc(SCc2csc(-c3ccc(Cl)cc3)n2)c(C#N)c1-c1ccc(OCCOC(=O)CC[C@H](NC(=O)CCC(=O)O)C(=O)O)cc1 [Example 10, (2S)-5-(2-{4-[2-Amino-6-({[2-(4-chlorophenyl)-1,3-thiazol-4-yl]methyl}thio)-3,5-dicyanopyridin-4-yl]phenoxy}ethoxy)-2-[(3-carboxypropanoyl)amino]-5-oxopentanoic acid disodium salt]	390 µg/mL					99%	99%		
N#Cc1c(N)nc(SCc2csc(-c3ccc(Cl)cc3)n2)c(C#N)c1-c1ccc(OCCOC(=O)CNC(=O)[C@@H](N)CCCCN)cc1 [Example 17, 2-{4-[2-Amino-6-({[2-(4-chlorophenyl)-1,3-thiazol-4-yl]methyl}sulfanyl)-3,5-dicyanopyridin-4-yl]-phenoxy}ethyl L-lysylglycinate dihydrochloride]	> 500 µg/mL								
N#Cc1c(N)nc(SCc2csc(-c3ccc(Cl)cc3)n2)c(C#N)c1-c1ccc(OCCO)cc1 [compound (A), 2-amino-6-({[2-(4-chlorophenyl)-1,3-thiazol-4-yl]methyl}thio)-4-[4-(2-hydroxy-ethoxy)phenyl]pyridine-3,5-dicarbonitrile, reference compound]								< 0.1 µg/mL	24%
